Measured values reported in US12636291B2, “Compositions and methods relating to use of agonists of ALPHA5-containing GABAA receptors” (Centre for Addiction and Mental Health, priority 2019, dated 2026).

Test system: Layer II/III pyramidal cells of prefrontal cortex (PFC)
Assay: Golgi staining morphological analysis of PFC pyramidal cells
Format: in vivo, mouse
Conditions: for spine density versus branch orders, overall: FIG. 17A; for spine density versus branch orders, basal dendrites: FIG. 17B; for spine density versus branch orders, apical dendrites: FIG. 17C; for spine density at 30 micron intervals from the soma, overall: FIG. 18A; for spine density at 30 micron intervals from the soma, basal dendrites: FIG. 18B; for spine density at 30 micron intervals from the soma, apical dendrites: FIG. 18C
Experimental: Details of the animals, materials, and methods used are provided following the discussion section below. Briefly, all studies discussed below were conducted using three groups of animals designated “Young” (2 months of age at the beginning of the 8-week study, 4 months of age at time of testing; “Old” (22 months of age at beginning of study, 24 months of age at time of testing); and “Treatment” (“Old” mice who received GL-II-73 in the drinking water for 8 weeks prior to evaluation of cognitive ability and pyramidal cell morphology). The last study further included a fourth group of animals, “Treatment+Washout” which were treated the same as the “Treatment” group except that the GL-II-73 was removed for a 1 week “wash-out” period prior to evaluation of pyramidal cell morphology.
Table 1 summarizes the results of a quantitative assessment of the morphological properties of Layer II/III pyramidal cells of prefrontal cortex (PFC) between Young, Old, and Treatment groups. […] Check marks represent countable spines; X's represent uncountable spines. The total number of sampled neurons in the PFC study was 72 cells with a total of 1,888 dendritic segments, 193,698 total dendritic lengths (μm), and 199,529 spine counts, respectively.
Table 2 summarizes the results of a quantitative assessment of the morphological properties of Layer II/III pyramidal cells of prefrontal cortex (PFC) between Young, Old, Old-Treatment, and Old-washout groups. As noted above, mice assigned to the “Young” group were 2 months of age at the beginning of the 8-week study and 4 months of age at time of testing; mice assigned to the “Old” group were 22 months of age at beginning of study, 24 months of age at time of testing; mice assigned to the “Old-Treatment” group were the same age as the “Old” group and received GL-II-73 in their drinking water for 8 weeks prior to evaluation; and mice assigned to the “Old-washout” group were the same age and treatment as the “Old-Treatment” group except that the GL-II-73 was removed for a 1 week “wash-out” period prior to evaluation. Differences in total dendritic lengths, overall spine counts, and overall spine density between groups were determined via ANOVA analysis.
Drug preparation and administration: The compound GL-II-73 was administered in the drinking water for 8 weeks, and made fresh every other day to prevent any deterioration of the compound in the water at room temperature. The solution was prepared at 30 mg/kg for an estimated volume of 8 ml/mouse/day, based on previous calculations. For the pilot study in the 5×FAD mouse model, the compound GL-II-73 was prepared for intra peritoneal injection only, at a dose of 10 mg/kg. Vehicle solution was made of 85% distilled water, 14% propylene glycol and 1% tween-80.
Brain collection and Golgi staining: Twenty-four hours after the completion of the behavioral testing, mice were euthanized using cervical dislocation. Brains were carefully collected from the skull, rinsed with MilliQ water and immersed in the Golgi staining solution provided by Neurodigitech (San Diego, CA). Six hours after the beginning of the incubation, the solution was changed to provide fresh solution. Then brains were left incubating for 14 days at room temperature, in the dark. For better results, vials containing the brains were gently swirled 3 times a week. After the incubation period, the staining solution was discarded and replaced by a storage solution and brains (n=4 per group) were shipped to Neurodigitech for morphological analysis.
Slice preparation: Brains were cut at 40 μm thickness using a cryostat and mounted on glass slides. The slides included serial coronal sections that covered the anterior-to-posterior axis of the brain. The sampling of ROIs included the basal and apical dendrites of pyramidal cells in Layers II/III of PFC. […]

[1] = Table 1, first study, Old, Treatment group, 4 samples
[2] = Table 2, washout study, Old, Treatment group, 4 samples
[3] = Table 2, Old, Washout group, 4 samples
[4] = washout study, FIG. 15B, Treatment vs Old mice, p<0.05
[5] = washout study, FIG. 15B, Washout vs Old mice, p<0.05
[6] = washout study, FIG. 16B, Old+Treatment vs Old mice, p<0.05
[7] = washout study, FIG. 16B, Washout vs Old mice, p<0.05
[8] = washout study, Old+Treatment vs Old mice, p<0.05
[9] = washout study, Washout vs Old mice, p<0.05

C#Cc1ccc2c(c1)C(c1ccccc1F)=N[C@H](C)c1c(C(=O)N(C)C)ncn1-2 (stereo in doubt) [GL-II-73, 8-ethynyl-6-(2-fluorophenyl)-N,N,4-trimethyl-4H-benzo[f]imidazo[1,5-a][1,4]diazepine-3-carboxamide]
Total segments (Table 1, first study, Old, Treatment group (GL-II-73 in drinking water 8 weeks), 4 samples): 666 | Overall spinal density [1]: 1.01 | Total lengths (microns) [1]: 66,656 microns | total spine counts [1]: 67,107 | Total segments (Table 2, washout study, Old, Treatment group (8 weeks GL-II-73), 4 samples): 1180 | Overall spinal density [2]: 1.11 | Total lengths (microns) [2]: 58395 microns | total spine counts [2]: 64863 | Total segments (Table 2, Old, Washout group (8 weeks GL-II-73, then 1 week wash-out), 4 samples): 1253 | Overall spinal density [3]: 1.17 | Total lengths (microns) [3]: 59414 microns | total spine counts [3]: 69305 | total dendritic lengths (first study, FIG. 3A, treatment group vs young mice, p>0.05): no significant difference in total dendritic length between the young mice and the treatment group | total dendritic lengths, basal dendrite (first study, FIG. 3B, between groups, p>0.05): no difference was found in the basal dendrite between groups | total dendritic lengths, apical dendrites (first study, FIG. 3B, treatment group vs old mice, p<0.05): higher total dendritic lengths of apical dendrites than old mice | total spine counts (first study, FIG. 4A, treatment group vs old mice, p<0.05): higher spine counts than old mice | total spine counts, apical dendrites (first study, FIG. 4B, treatment group vs old mice, p<0.05): higher spine count than old mice | total spine counts, basal dendrites (first study, FIG. 4B, treatment group vs young mice, p>0.05): no difference in both basal and apical dendrites between young mice and the treatment group | overall spine density (first study, FIG. 5A, treatment group vs old mice, p<0.05): higher density than old mice | spine density, apical dendrites (first study, FIG. 5B, treatment group vs old mice, p>0.05): no difference between old mice and the treatment group | spine density × branch orders, overall (first study, FIG. 6A, treatment group vs old mice, p<0.05): higher density at the 1st branch order than old mice | spine density × branch orders, basal dendrites (first study, FIG. 6B, treatment group vs old mice, p<0.05): significantly higher density at the 1st branch order than old mice | spine density × branch orders, apical dendrites (first study, FIG. 6C, treatment group vs old mice, p<0.05): higher density at the 1st order than old mice | spine density × every 30 micron interval from soma, overall (first study, FIG. 7A, Sholl analysis, treatment group vs old mice, p<0.05): higher density at 180 micron interval from soma than old mice | spine density × every 30 micron interval from soma, apical dendrites (first study, FIG. 7C, treatment group vs old mice, p<0.05): higher density at 180 micron interval from soma of the dendritic field than old mice | frequency of intersections × 30 micron interval relative to soma, overall (first study, FIG. 8A, old vs treatment group, p<0.05): significant reductions at a distance of 120-150 micron from the soma between old and young mice as well as between old and the treatment group | frequency of intersections × 30 micron interval, basal dendrites (first study, FIG. 8B, old vs treatment group, p>0.05): a trend of decrease was found at 120-150 micron interval from soma between Old and Young as well as old and the treatment group | frequency of intersections × 30 micron interval, apical dendrites (first study, FIG. 8C, treatment group vs old mice, p<0.05): higher frequency at 120-150 micron interval from soma than old mice | total spine counts (washout study, FIG. 15A, Old+Treatment vs Old mice, p<0.05): more spine counts than Old mice | total spine counts (washout study, FIG. 15A, Washout (1 week after 8 weeks GL-II-73) vs Old mice, p<0.05): more spine counts than Old mice | total spine counts, apical dendrites [4]: higher spine counts | total spine counts, basal dendrites [4]: higher spine counts | total spine counts, apical dendrites [5]: higher spine counts | total spine counts, basal dendrites [5]: higher spine counts | overall spine density (washout study, FIG. 16A, Old+Treatment vs Old mice, p<0.05): higher spine density than Old mice | overall spine density (washout study, FIG. 16A, Washout vs Old mice, p<0.05): higher spine density than Old mice | spine density, apical dendrites [6]: Old mice exhibited a lower spine density than Young, Old+Treatment and Washout mice | spine density, basal dendrite [6]: Old mice showed a significant decrease of spine density in the basal dendrite as compared to Young, Old+Treatment and Washout mice | spine density, apical dendrites [7]: Old mice exhibited a lower spine density than Young, Old+Treatment and Washout mice | spine density, basal dendrite [7]: Old mice showed a significant decrease of spine density in the basal dendrite as compared to Young, Old+Treatment and Washout mice | spine density versus branch orders, overall [8]: higher spine density at the 2nd to 6th | spine density versus branch orders, overall [9]: 3rd to 6th branch orders | spine density versus branch orders, basal dendrites [8]: higher density at the 5th branch order than Old mice | spine density versus branch orders, basal dendrites [9]: higher density at the 5th branch order than Old mice | spine density versus branch orders, apical dendrites [8]: higher density at the 2nd branch order than Old mice | spine density versus branch orders, apical dendrites [9]: higher spine density at the 5th to 6th branch orders than Old mice | spine density at 30 micron intervals from the soma, overall [8]: higher spine density at 150 um to 210 um from soma | spine density at 30 micron intervals from the soma, overall [9]: higher spine density at 90 um to 210 um from soma | spine density at 30 micron intervals from the soma, basal dendrites [8]: higher density between 150 um and 180 um from soma | spine density at 30 micron intervals from the soma, basal dendrites [9]: higher density between 120 um and 180 um from the soma than Old mice | spine density at 30 micron intervals from the soma, apical dendrites [8]: higher density at 180 um to 210 um from soma | spine density at 30 micron intervals from the soma, apical dendrites [9]: higher spine density at 120 um to 210 um from soma
